For one series, the system named is EphA2. Put plainly: Western blot of EphA2 expression after siRNA. Type of series: cell-based. The conditions noted are these: MDA-MB-231 HA-TrkA transfected with siEphA2. On the procedure:
D. Cells MDA-MB-231 HA-TrkA were transfected with siEphA2 and then treated with proNGF N.C. (30 min). The recruitment of the sortilin and EphA2 was determined after anti-HA immunoprecipitation.
The sequences of siRNA used against EphA2 (siEphA2) at 100 pmol for each transfection, and against TrkA (pool of 3 siTrkA 1, 2 and 3) are given in table 1. The transfections of siRNA are produced by means of […]in™ according to the manufacturers instructions (POL409-10, Polyplus transfection, Ozyme, Saint Quentin en Yvelines, France).
After treatment, the cells were lysed (lysis buffer: 40 mM HEPES pH 7.5; 1 mM EDTA pH 8.0; 120 mM NaCl; 10 mM NaPPi; 50 mM NaF; 1.5 mM Na3VO4; 1% Triton X 100; 0.1% SDS; 1 mM PMSF; 10% glycerol and 1/100 th of protease inhibitor cocktail (Sigma) (20 min; 4° C.)). The lysates were recovered and clarified by centrifugation (12,000 g; 10 min; 4° C.). The supernatant was then stored at −80° C. until use. The protein extracts were diluted to 2 μg·μL−1 in a Laemmli 1× buffer (7 min; 100° C.) then deposited and separated on SDS-PAGE (concentration gel 3.6% acrylamide and separation gel 7.5% to 10% acrylamide (thickness 1 mm); 180 V; 10 min then 200 V constant; until output of the migration front). […] The membranes were placed in an image analyser (LAS 4000; Fuji) connected to a computer which allowed image generation (software Image Reader LAS 4000). […]
A general note: Immunoblotting shows a protein as a band on a membrane.

Series [1] relates to MDA-MB-231 HA-TrkA tumours. Briefly: Xenograft of MDA-MB-231 HA-TrkA in SCID mice, survival (Experiment 2). Type of series: in vivo. The conditions noted are these: 5 injections (D14-D26), siRNA 7.5 microg/mouse close to the tumour; control 40 days; log-rank P=0.0022. The procedure: FIG. 9: A study of the inhibition of TrkA and EphA2 on tumour development in vivo. […] The experiments were stopped 31 days after the first injection of the treatment for ethical considerations after the death of the control mice. A) The tumour volumes were evaluated by measuring the length (;) and the width (w) and then calculating the volume using the formula π/6×l×W×(l+w)/2; the Mann and Whitney test was carried out between the control group and CEP-701 (a), between the control groups and siEphA2 (b), between the control groups and CEP-701+siEphA2 (c), and between the groups siEphA2 and CEP-701+siEphA2 (d)*, P<0.05; **, P<0.01; ns: not significant. B) Study of the inhibition of the expression of receptors by siRNA on the overall survival of SCID mice. The tumours were developed without any intervention for 14 days and were then subjected to 5 injections (D14, DI7, D20, D23, D26) of SiTrkA (7.5 microg/mouse), siEphA2 (7.5 microg/mouse), siTrkA (7.5 microg/mouse) and siEphA2 (7.5 microg/mouse). […] The tumour volumes were evaluated by measuring the length (l) and width (w) and then calculating the volume using the formula π/6×l×W×(l+w)/2. […] Significance was measured using the log-rank test (P=0.0022). […]
Experiment 2: The mice used were six-week old SCID females. […] The tumour volume was measured according to the following formula: π/6×length×width×(width+length)/2. […]

Results on one substance are retold here after US20170258871A1, “COMBINED USE OF A TRKA INHIBITOR AND AN EPHA2 INHIBITOR FOR USING IN THE TREATMENT OF SOLID CANCERS, AND METHOD FOR THE PROGNOSIS OF SURVIVAL OF A PATIENT WHO HAS A SOLID CANCER” (UNIVERSITE DES SCIENCES ET TECHNOLOGIES DE LILLE, priority 2014, published 2017).

Consider “siEphA2: siRNA against EphA2, GCAAGGAAGUGGUACUGCUGGACUU (SEQ ID NO: 1) (listed as RNA, chemistry not given here)”, for which the “expression of EphA2 protein” value in the series with EphA2 is listed as “completely abolished the expression”. Further, the median survival in series [1] turned out to be 49 days.
